Test results published in paper PMC3747596 (PLoS ONE, 2013).
Where two headings read alike, the source gives them in different places.

Tests used:
[1] = molecular target: T1, α2C-adrenoceptor (α2C-AR) (Homo sapiens, UniProt P18825); experiment: Radioligand displacement, α2C
T1 sequence (P18825 1-462): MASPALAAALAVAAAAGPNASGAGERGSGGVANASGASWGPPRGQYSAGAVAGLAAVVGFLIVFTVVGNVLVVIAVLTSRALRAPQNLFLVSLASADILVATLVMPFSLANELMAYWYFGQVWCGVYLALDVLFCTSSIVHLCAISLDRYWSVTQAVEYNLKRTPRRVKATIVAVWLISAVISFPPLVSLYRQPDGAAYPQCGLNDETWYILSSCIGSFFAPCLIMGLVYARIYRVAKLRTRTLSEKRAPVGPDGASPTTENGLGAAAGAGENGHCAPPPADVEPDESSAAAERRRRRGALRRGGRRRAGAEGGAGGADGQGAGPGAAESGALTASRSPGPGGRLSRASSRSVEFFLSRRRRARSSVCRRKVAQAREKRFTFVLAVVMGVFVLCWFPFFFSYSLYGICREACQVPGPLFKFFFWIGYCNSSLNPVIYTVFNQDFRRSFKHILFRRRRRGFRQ

[2] = molecular target: D3 (Homo sapiens, UniProt P35462); experiment: Radioligand displacement, D3; format: binding
[3] = molecular target: 5-HT7 (Homo sapiens, UniProt P34969); experiment: Radioligand displacement, 5-HT7; format: binding
[4] = molecular target: 5-HT1b (Homo sapiens, UniProt P28222); experiment: Radioligand displacement, 5-HT1b; format: binding
[5] = molecular target: T2, δ opioid receptor (Homo sapiens, UniProt P41143); experiment: Radioligand displacement, δ; format: binding; settings: K i, radioligand displacement (Table 1)
T2 construct: expressed in transfected cells

[6] = molecular target: β2 (Homo sapiens, UniProt P07550); experiment: Radioligand displacement, β2; format: binding
[7] = molecular target: D2 (Homo sapiens, UniProt P14416); experiment: Radioligand displacement, D2; format: binding
[8] = molecular target: T3, D4 (Homo sapiens, UniProt P21917); experiment: Radioligand displacement, D4; format: binding
T3 sequence (P21917 1-419): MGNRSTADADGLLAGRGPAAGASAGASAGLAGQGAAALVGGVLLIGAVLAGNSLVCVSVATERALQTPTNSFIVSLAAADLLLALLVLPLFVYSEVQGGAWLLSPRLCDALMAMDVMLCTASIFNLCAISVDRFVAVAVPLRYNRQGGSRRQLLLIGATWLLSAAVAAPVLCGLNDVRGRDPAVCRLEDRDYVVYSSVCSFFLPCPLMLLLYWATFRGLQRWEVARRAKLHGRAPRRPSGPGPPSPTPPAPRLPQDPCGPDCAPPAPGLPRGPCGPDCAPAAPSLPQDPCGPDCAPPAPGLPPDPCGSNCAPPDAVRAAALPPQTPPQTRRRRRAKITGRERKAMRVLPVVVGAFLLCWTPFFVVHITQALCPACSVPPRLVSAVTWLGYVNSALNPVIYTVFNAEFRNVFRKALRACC

[9] = tested on: human permeability glycoprotein (P-gp); settings: cited from earlier work
[10] = molecular target: GABAA (BZP); experiment: Radioligand displacement, GABAA (BZP); format: binding; settings: [3H] radioligand Flunitrazepam; Rat, Brain
[11] = molecular target: H1 (Homo sapiens, UniProt P35367); experiment: Radioligand displacement, H1; format: binding
[12] = molecular target: T4, α1D (Homo sapiens, UniProt P25100); experiment: Radioligand displacement, α1D; format: binding
T4 sequence (P25100 1-572): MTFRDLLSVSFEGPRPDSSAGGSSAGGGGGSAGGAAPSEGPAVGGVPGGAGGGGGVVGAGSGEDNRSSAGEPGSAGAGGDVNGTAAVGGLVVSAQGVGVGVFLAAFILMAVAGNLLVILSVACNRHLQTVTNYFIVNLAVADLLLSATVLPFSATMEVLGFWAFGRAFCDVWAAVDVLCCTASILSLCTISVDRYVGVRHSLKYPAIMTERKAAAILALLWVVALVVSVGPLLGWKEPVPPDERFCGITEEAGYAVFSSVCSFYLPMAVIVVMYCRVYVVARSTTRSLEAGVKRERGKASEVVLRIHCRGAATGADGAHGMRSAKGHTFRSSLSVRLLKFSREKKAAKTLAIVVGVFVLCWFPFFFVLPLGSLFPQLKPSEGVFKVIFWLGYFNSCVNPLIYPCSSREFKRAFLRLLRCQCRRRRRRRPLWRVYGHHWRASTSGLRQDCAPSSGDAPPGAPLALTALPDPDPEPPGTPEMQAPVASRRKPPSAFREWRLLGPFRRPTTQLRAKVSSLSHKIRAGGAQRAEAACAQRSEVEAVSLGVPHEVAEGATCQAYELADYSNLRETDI

[13] = molecular target: σ1 (Rattus norvegicus, UniProt Q9R0C9); experiment: Radioligand displacement, σ1; format: binding
[14] = molecular target: M4 (Homo sapiens, UniProt P08173); experiment: Radioligand displacement, M4; format: binding
[15] = molecular target: DAT (Homo sapiens, UniProt Q01959); experiment: Radioligand displacement, DAT
[16] = molecular target: T5, human NOP (Homo sapiens, UniProt P41146); experiment: NOP binding against [3H]N/OFQ, HEK293T membranes
T5 construct: expressed in transfected cells; host or cells: HEK293T

[17] = molecular target: M1 muscarinic receptors (M1-R) (Homo sapiens, UniProt P11229); experiment: Radioligand displacement, M1; format: binding
[18] = molecular target: 5-HT5a (Homo sapiens, UniProt P47898); experiment: Radioligand displacement, 5-HT5a; format: binding
[19] = molecular target: D1 (Homo sapiens, UniProt P21728); experiment: Radioligand displacement, D1; format: binding
[20] = tested on: nociceptin/orphanin FQ receptor (NOP); design: method as in PMID 11510482; settings: at 10 µM; cited from earlier work
[21] = molecular target: nociceptin/orphanin FQ receptor (NOP); design: method as in PMID 8943250; settings: cited from earlier work
[22] = K i, α2C, radioligand displacement (Table 1)
[23] = Ki, [3H] radioligand Rauwolscine, Human, Cloned
[24] = [3H] radioligand N-Methylspiperone, Human, Cloned, read-out: Ki
[25] = [3H] radioligand LSD, Human, Cloned, read-out: Ki
[26] = [3H] radioligand QNB, Human, Cloned, read-out: Ki

Sequence of M1 muscarinic receptors (M1-R) (P11229 whole entry): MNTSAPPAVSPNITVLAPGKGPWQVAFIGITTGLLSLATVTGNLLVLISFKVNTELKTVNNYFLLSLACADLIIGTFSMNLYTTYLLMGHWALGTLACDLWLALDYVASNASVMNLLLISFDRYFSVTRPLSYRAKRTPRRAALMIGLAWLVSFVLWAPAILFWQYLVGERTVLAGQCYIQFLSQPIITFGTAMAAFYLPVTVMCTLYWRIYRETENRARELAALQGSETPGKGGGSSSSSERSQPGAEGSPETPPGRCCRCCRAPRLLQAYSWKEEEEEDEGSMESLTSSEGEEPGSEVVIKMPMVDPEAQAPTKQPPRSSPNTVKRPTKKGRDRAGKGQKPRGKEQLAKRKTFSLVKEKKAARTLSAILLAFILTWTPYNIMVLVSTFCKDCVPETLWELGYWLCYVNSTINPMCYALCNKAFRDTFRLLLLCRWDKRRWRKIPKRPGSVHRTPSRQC
Sequence of M4 (P08173 whole entry): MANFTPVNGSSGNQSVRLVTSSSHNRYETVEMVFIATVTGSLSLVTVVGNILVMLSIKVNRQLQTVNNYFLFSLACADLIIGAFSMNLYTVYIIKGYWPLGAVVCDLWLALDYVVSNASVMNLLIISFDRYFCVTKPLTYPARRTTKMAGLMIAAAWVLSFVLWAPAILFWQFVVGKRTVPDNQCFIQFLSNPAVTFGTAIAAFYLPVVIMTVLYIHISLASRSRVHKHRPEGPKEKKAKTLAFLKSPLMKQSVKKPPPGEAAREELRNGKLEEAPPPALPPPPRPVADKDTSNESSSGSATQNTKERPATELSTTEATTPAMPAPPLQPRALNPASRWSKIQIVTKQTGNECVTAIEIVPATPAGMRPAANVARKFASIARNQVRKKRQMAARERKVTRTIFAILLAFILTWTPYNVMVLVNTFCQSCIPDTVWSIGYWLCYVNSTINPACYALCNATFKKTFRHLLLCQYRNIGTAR
Sequence of 5-HT5a (P47898 whole entry): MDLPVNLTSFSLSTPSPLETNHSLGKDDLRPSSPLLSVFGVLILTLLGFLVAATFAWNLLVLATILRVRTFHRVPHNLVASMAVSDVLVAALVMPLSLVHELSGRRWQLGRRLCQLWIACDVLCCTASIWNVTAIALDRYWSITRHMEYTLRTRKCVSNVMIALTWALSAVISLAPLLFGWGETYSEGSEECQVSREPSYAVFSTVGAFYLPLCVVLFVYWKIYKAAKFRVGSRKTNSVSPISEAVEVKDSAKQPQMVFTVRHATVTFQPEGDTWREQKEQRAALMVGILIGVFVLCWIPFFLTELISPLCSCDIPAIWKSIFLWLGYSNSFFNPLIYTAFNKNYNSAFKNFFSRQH
Sequence of 5-HT7 (P34969 whole entry): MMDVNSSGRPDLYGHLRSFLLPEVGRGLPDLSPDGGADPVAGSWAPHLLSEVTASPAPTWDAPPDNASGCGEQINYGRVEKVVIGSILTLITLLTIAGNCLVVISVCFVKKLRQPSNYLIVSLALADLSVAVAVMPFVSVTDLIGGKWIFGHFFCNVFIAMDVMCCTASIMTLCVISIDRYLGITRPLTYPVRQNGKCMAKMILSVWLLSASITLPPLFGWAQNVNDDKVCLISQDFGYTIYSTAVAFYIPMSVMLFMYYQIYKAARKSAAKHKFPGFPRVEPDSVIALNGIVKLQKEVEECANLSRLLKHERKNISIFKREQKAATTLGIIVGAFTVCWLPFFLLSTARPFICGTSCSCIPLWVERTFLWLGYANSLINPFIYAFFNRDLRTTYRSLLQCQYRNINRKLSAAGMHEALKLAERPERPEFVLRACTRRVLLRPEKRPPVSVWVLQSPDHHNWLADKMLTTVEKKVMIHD
Sequence of H1 (P35367 whole entry): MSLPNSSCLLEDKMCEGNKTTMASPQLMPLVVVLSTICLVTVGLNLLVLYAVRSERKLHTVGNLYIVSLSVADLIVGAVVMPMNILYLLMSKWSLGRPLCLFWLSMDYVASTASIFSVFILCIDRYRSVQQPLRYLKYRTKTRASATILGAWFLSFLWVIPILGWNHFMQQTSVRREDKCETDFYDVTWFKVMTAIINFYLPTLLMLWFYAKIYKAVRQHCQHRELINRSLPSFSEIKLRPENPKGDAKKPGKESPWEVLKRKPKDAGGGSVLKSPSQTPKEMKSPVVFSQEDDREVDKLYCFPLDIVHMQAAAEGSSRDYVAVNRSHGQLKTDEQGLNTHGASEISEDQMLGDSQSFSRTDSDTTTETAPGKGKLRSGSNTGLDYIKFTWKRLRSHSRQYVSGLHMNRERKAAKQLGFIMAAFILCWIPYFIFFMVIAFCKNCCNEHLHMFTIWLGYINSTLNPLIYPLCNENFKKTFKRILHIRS
Sequence of 5-HT1b (P28222 whole entry): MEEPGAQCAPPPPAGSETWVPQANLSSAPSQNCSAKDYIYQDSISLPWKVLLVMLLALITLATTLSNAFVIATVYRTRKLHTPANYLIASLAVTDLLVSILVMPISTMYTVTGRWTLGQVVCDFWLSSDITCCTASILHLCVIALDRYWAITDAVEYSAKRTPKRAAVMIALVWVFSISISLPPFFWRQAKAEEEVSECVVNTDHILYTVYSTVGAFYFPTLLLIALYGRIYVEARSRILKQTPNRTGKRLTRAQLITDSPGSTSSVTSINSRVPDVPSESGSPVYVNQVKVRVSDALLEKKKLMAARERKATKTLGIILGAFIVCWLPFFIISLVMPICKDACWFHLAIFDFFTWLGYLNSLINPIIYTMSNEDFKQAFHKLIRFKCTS
Sequence of σ1 (Q9R0C9 whole entry): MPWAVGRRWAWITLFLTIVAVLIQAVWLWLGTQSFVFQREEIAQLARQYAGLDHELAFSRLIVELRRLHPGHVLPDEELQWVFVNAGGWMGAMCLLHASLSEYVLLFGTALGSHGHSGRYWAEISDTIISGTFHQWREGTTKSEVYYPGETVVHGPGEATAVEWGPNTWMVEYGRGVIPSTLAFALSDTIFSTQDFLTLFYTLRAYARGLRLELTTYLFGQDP
Sequence of D2 (P14416 whole entry): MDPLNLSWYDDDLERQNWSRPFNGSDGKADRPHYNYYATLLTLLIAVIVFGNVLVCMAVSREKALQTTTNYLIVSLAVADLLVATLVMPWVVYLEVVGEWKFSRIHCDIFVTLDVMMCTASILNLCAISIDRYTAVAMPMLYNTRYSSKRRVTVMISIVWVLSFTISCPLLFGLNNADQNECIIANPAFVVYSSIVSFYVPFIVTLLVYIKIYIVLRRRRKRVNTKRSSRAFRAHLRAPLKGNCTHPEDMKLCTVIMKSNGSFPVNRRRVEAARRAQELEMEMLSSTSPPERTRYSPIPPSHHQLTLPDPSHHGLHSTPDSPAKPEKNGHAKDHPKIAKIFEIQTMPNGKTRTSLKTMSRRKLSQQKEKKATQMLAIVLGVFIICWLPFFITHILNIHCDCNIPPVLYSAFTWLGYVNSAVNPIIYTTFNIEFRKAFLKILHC
Sequence of D1 (P21728 whole entry): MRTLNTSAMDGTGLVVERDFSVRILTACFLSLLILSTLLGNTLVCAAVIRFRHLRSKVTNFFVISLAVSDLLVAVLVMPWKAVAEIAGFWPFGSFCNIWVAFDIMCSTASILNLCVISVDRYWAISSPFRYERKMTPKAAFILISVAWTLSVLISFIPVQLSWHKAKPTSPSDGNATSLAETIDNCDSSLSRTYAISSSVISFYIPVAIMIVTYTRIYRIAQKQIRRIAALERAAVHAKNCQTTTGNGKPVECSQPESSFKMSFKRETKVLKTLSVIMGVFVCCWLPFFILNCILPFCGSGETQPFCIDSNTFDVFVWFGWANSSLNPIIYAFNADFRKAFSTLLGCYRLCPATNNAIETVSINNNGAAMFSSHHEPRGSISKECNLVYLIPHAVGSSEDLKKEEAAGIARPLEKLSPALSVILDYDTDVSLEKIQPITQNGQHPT
Sequence of DAT (Q01959 whole entry): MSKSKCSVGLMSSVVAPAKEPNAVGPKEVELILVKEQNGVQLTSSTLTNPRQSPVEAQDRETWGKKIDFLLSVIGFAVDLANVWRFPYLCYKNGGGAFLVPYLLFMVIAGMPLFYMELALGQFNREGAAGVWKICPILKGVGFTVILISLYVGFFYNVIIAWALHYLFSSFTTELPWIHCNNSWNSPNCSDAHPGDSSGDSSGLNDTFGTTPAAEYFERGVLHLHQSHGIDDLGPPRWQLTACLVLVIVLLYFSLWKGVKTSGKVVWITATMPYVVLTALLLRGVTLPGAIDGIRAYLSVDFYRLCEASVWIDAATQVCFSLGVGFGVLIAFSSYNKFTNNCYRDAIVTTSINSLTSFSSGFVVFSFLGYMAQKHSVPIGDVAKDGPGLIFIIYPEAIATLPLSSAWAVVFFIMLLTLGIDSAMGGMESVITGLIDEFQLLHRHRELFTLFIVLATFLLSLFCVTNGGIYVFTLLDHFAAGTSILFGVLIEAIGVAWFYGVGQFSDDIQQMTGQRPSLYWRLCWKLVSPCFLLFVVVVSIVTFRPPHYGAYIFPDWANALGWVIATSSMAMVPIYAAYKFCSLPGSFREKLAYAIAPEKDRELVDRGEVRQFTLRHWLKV
Sequence of D3 (P35462 whole entry): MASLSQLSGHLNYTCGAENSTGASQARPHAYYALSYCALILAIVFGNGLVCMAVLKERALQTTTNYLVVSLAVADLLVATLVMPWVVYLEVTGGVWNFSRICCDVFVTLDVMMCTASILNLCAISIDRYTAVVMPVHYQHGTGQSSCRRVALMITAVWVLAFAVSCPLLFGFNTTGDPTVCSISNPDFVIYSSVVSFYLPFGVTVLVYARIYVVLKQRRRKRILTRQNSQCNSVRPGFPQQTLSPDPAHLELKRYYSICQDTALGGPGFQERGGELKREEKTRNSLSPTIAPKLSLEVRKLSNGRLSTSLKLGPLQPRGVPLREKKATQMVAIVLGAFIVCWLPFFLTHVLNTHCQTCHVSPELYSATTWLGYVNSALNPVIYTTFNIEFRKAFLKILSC

| SMILES | Ki [1, 22] | Ki [1, 23] | Ki [2] | Ki [3] | Ki [4] | Ki [6] | Ki [7] | Ki [8] | substrate of human P-gp [9] | Ki [10] | Ki [11] | Ki [12] | Ki [13] | Ki [14] | Ki [15] | Ki [16] | Ki [17] | Ki [18] | Ki [19] | further results |
| --- | --- | --- | --- | --- | --- | --- | --- | --- | --- | --- | --- | --- | --- | --- | --- | --- | --- | --- | --- | --- |
| N=C(N)Nc1ccc2[nH]c3c(c2c1)C[C@@]1(O)[C@H]2Cc4ccc(O)c5c4[C@@]1(CCN2CC1CC1)[C@H]3O5 [GNTI, 5′-guanidinonaltrindole] | 2.2 µM | 2.23 µM | ≥ 10 µM | ≥ 10 µM | ≥ 10 µM | ≥ 10 µM | ≥ 10 µM | ≥ 10 µM | not substrates | ≥ 10 µM | ≥ 10 µM | ≥ 10 µM | ≥ 10 µM | ≥ 10 µM | ≥ 10 µM | 2.5 µM | ≥ 10 µM | ≥ 10 µM | ≥ 10 µM | Ki ([1]; Ki, binding curve File S1, Alpha2C Receptor, [125I]Clonidine (0.12 nM), Alpha2 Binding Buffer): 2.23 µM; Ki [5]: 0.058 µM; displacement from M1-R ([17]; at 10 µM, [3H]3-quinuclidinyl benzilate (QNB)): 49% |
| CC(C)[C@@H](CN1CC[C@@](C)(c2cccc(O)c2)[C@@H](C)C1)NC(=O)[C@H]1Cc2ccc(O)cc2CN1 [JDTic] |  |  |  |  |  |  |  |  |  | ≥ 10 µM |  |  |  |  |  |  |  |  |  | Ki [1]: ≥ 10 µM; Ki [2, 24]: ≥ 10 µM; Ki [3, 25]: ≥ 10 µM; Ki ([4]; [3H] radioligand GR125743, Human, Cloned, read-out: Ki): ≥ 10 µM; Ki ([6]; [3H] radioligand CGP12177, Human, Cloned, read-out: Ki): ≥ 10 µM; Ki [7, 24]: ≥ 10 µM; Ki [8, 24]: ≥ 10 µM; Ki ([11]; [3H] radioligand Pyrilamine, Human, Cloned, read-out: Ki): ≥ 10 µM; Ki ([12]; read-out: Ki): ≥ 10 µM; Ki ([13]; [3H] radioligand Pentazocine(+), Rat, Brain, read-out: Ki): 1.88 µM; Ki ([13]; binding curve File S1, Sigma-1 Receptor, [3H]Pentazocine (3.0 nM), Sigma Binding Buffer, read-out: Ki): 1.88 µM; Ki ([13]; σ1, radioligand displacement (Table 1), read-out: K i): 1.9 µM; Ki [14, 26]: ≥ 10 µM; Ki ([15]; K i, DAT, radioligand displacement (Table 1)): 4.4 µM; Ki ([15]; Ki, [3H] radioligand WIN35428, Human, Cloned): 4.37 µM; Ki ([15]; Ki, binding curve File S1, Dopamine Transporter, [3H]WIN35428 (3 nM), Transporter Binding Buffer): 4.37 µM; Ki ([16]; NOP, displacing [3H]N/OFQ (Table 1), read-out: K i): 0.012 µM; Ki [17, 26]: ≥ 10 µM; Ki [18, 25]: ≥ 10 µM; Ki ([19]; [3H] radioligand SCH23390, Human, Cloned, read-out: Ki): ≥ 10 µM |
| Oc1ccc2c3c1O[C@H]1c4[nH]c5c(c4C[C@@]4(O)[C@@H](C2)N(CC2CC2)CC[C@]314)C[C@@]1(O)[C@H]2Cc3ccc(O)c4c3[C@@]1(CCN2CC1CC1)[C@H]5O4 [nor-BNI, Nor-binaltorphimine] | 0.63 µM | 0.626 µM | ≥ 10 µM | ≥ 10 µM | ≥ 10 µM | ≥ 10 µM | ≥ 10 µM | ≥ 10 µM | not substrates | ≥ 10 µM | ≥ 10 µM | ≥ 10 µM | ≥ 10 µM | ≥ 10 µM | ≥ 10 µM | 4.4 µM | ≥ 10 µM | ≥ 10 µM | ≥ 10 µM | binding to NOP [20]: no binding; Ki [21]: 0.78 µM |
